Reference: paper PMC8880991 (eLife, 2022)
Entries after “also recorded” stand apart in the source; their conditions may differ. Read-outs that look alike come from different tables or passages of the source.

Key:
wild-type mice = experiment: Blood glucose monitoring of overnight-fasted mice; assay type: in vivo, mouse; conditions: glibenclamide 40 mg/kg body weight, single intraperitoneal application; end of 2-hr observation period
Description: We evaluated the blood glucose levels of tested mice (8–12 weeks of age) using a digital glucometer (Clarity Diagnostics, BG1000). Induced diabetic mice were tested daily starting from the day after the final administration of tamoxifen until their blood glucose levels reached above 600 mg/dl. Following overnight (16 hr) fasting, blood glucose monitoring and plasma collection were then performed using specified mouse lines at designated time points over a 2-hr observation period in the next morning. […] At each given time point, the glucose level of a blood drop obtained from the cut tail tip was measured twice using a glucometer. For any case where the level was above 600 mg/dl, the blood sample was diluted by an equal volume of the phosphate-buffer solution titrated to pH 7.3 before the glucose level was remeasured for two times. Additionally, four to five drops (~12 μl) of tail vein blood were collected at individual specified time points into a tube containing K2EDTA (1.5 mg/ml blood) and centrifuged at 2000 × g for 5 min at 4°C. 5 μl of the resulting plasma was frozen in liquid nitrogen, stored at −20°C, and assayed using a colorimetric insulin-detecting ELISA kit (CrystalChem, 90080) within a week. Mice were grouped according to genotypes. Using a previous study as reference ([Remedi et al., 2009]), we determined the number of mice for individual groups. […]

[1] = system: β cells in isolated pancreatic islets from ^EndomKir6.2^V108E mice; experiment: Membrane potential (Vm), perforated whole-cell patch clamp; assay type: cell-based, mouse; conditions: glibenclamide; nominal glucose-free condition
Description: (§1) Electrophysiological membrane potential (Vm) measurements from individual cells in isolated but intact islets cultured on glass coverslips were performed using the perforated whole-cell patch-clamp method as described ([Yang et al., 2021]). Wax-coated electrodes (G85150T, Warner) were back filled with the intracellular solution containing (in mM): 76 K2SO4, 10 KCl, 10 NaCl, 6 MgCl2, 30 mannitol, 30 HEPES, where pH was titrated to 7.2 at 35°C with N-methyl-d-glucamine (NMG). The tip of the pipette was filled with this solution and the remainder was back filled with the same solution plus β-escin (6 or 8 µM). The free Mg^2+ concentration of this solution, taking the divalent cation-chelating action of SO4^2− into consideration, is estimated to be about 2 mM. The extracellular solution contained (in mM): 135 NaCl, 4 KCl, 2 CaCl2, 2 MgCl2, 10 HEPES, where pH was titrated to 7.4 at 35°C with NMG. Glucose was added to this solution as required and the osmolarity was adjusted to ~300 mOsm with mannitol. All salts were from Millipore-Sigma. Using the solutions described above, the initial input resistance of the electrode was typically 4–8 MΩ. The electrophysiological recordings were performed under a continuous perfusion condition, 0.3–0.4 ml/min (Instech), at ~35°C (TC-124A and TC-344B Warner). Islets were equilibrated in the recording chamber for 10–15 min before measurements were made. Adequate whole-cell access was achieved typically within 5–10 min.
(§2) The output of the patch-clamp amplifier (Axopatch 200B, Molecular Devices) was digitized at 2 kHz and stored for later analysis using Igor Pro (v8 or v9, Wavemetrics). The liquid junction potential has been subtracted from the results. To estimate the average Vm values under different conditions, the Vm traces were digitally Gaussian filtered at 0.1 Hz and the filtered data points in the last 50 s of a segment of interest were averaged. The filtered traces are superimposed on the illustrative original traces in the figures where appropriate. The variations in data values reflected both biological variability and technical errors (Figures 2D–F–6D–F). No data, which were successfully recorded over sufficient durations that allowed for adequate examination the membrane potential under the various specified conditions, were excluded.

[2] = system: β cells in isolated pancreatic islets from wild-type mice; experiment: as above; assay type: cell-based, mouse
Description: as §1, §2

[3] = system: isolated pancreatic islets of ^EndomKir6.2^V108E mice; assay type: cell-based, mouse
Description: (§3) Pancreatic islets were isolated as previously described ([Doliba et al., 2017]; [Li et al., 2009]). For each experiment, one to four adult mice (8–12 weeks of age) were euthanized by exposing them to an overdose of isoflurane through inhalation and a subsequent cervical dislocation. Following a perfusion through the common bile duct with a Hank’s balanced salt solution (HBSS; GIBCO, 14175) containing collagenase XI (1–2 mg/ml, Millipore-Sigma, C7657) and 1 mM CaCl2, the pancreas was dissected and digested at 37°C for 5 or 15 min. After the digestion, the collagenase in the pancreas homogenate was removed through several washes with HBSS containing 0.3% (wt/vol) bovine serum albumin, and dissociated islets were then hand-picked into a recovery media RPMI1640 (GIBCO, 21870) with the following supplements: 10% fetal bovine serum, 2 mM GlutaMAX, 1 mM sodium pyruvate, penicillin–streptomycin, and 10 mM HEPES titrated to pH 7.4 with NaOH. For the perifusion assay, the digested pancreases samples were subject to a Ficoll gradient purification, and the islets in the enriched fraction were washed with the recovery solution before handpicking islets. During this process, the samples from four mice were pooled to ensure a sufficient number of islets were used to perform assays under compared conditions with the same population in each independent round of experiment. The handpicked islets were placed in 5% CO2 incubator at 37°C to rest overnight prior to the static incubation assay or 2 days prior to the perifusion assay.
For each perifusion experiment ([Doliba et al., 2017]), pancreatic islets from four mice (8–12 weeks of age) were used in the following manner. […] At the end of each experiment, the islets were recovered and placed in acidified ethanol to extract total insulin content as described above. Insulin in the samples was assayed using an insulin-specific radioimmunoassay kit (RI-13K, Millipore). For each condition, the study was performed three to six times. […] No experiments were excluded.

[4] = system: ^Rosa26mKir6.2^NDM-V108E mice; experiment: Blood glucose monitoring of overnight-fasted diabetic mice; assay type: in vivo, mouse; conditions: glibenclamide 40 mg/kg, single bolus
Source text: (§4) In ^Rosa26mKir6.2^NDM and ^Rosa26mKir6.2^NDM-V108E mice, the expression of mutant Kir6.2 activity occurred in the pancreas upon the excision of the Neo/WSS cassette by the tamoxifen-dependent Cre recombinase ([Remedi et al., 2009]). Exposure to tamoxifen permitted the translocation of Cre recombinase from the cytoplasm to the nucleus in order to perform the excision between loxP sites within the targeted Rosa26 locus. To induce the expression of mutant Kir6.2 activity and consequently the diabetic phenotype in these mutant mice (8–12 weeks of age), corn oil containing tamoxifen (75 mg/kg body weight; prepared as described below) was injected intraperitoneally for five consecutive days. Injection sites were sealed with a tissue adhesive (3M Vetbond) to prevent leakage of the injected liquid.
(§5) We evaluated the blood glucose levels of tested mice (8–12 weeks of age) using a digital glucometer (Clarity Diagnostics, BG1000). Induced diabetic mice were tested daily starting from the day after the final administration of tamoxifen until their blood glucose levels reached above 600 mg/dl. […] At each given time point, the glucose level of a blood drop obtained from the cut tail tip was measured twice using a glucometer. […]

[5] = system: ^Rosa26mKir6.2^NDM-V108E mice; experiment: Plasma insulin assay (ELISA); assay type: in vivo, mouse; conditions: glibenclamide 40 mg/kg, single bolus
Source text: as §4, §5

[6] = system: isolated pancreatic islets of ^EndomKir6.2^V108E mice; experiment: Static incubation assay of GSIS with diazoxide; assay type: cell-based, mouse; conditions: 100 µM diazoxide; for Amount of insulin (secreted/total), Mean: 0 µM SpTx1, mean of 6 mice
Description: as §3
For insulin secretion in each independent static incubation assays, pancreatic islets from one mouse (8–12 weeks of age) were used as follows. […] Washed islets were equilibrated in the final wash step for 1 hr at 5% CO2 and 37°C. Using a previous study as reference ([Remedi et al., 2009]) and on the basis of the amount of insulin secretion and the sensitivity of insulin assay, we chose to use 5–10 islets in each assay. […]

SMILES: COc1ccc(Cl)cc1C(=O)NCCc1ccc(S(=O)(=O)NC(=O)NC2CCCCC2)cc1 [glibenclamide]
- effect on blood glucose level (wild-type mice): lowered the blood glucose level of wild-type mice by half
- effect on Vm [1]: elicited action potentials
- Vm ([2]; 0.2 uM Glibenclamide in 5 mM Glucose, islet 1): -0.05335 V
- Vm ([2]; 0.2 uM Glibenclamide in 5 mM Glucose, islet 2): -0.03306 V
- Vm ([2]; 0.2 uM Glibenclamide in 5 mM Glucose, islet 3): -0.0403 V
- Vm ([2]; 0.4 uM Glibenclamide in 0 mM Glucose, islet 1): -0.05043 V
- Vm ([2]; 0.4 uM Glibenclamide in 0 mM Glucose, islet 2): -0.02061 V
- Vm ([2]; 0.4 uM Glibenclamide in 0 mM Glucose, islet 3): -0.04501 V
- Vm ([2]; 0.4 uM Glibenclamide in 0 mM Glucose, islet 4): -0.03684 V
- Vm ([2]; 0.4 uM Glibenclamide in 0 mM Glucose, islet 5): -0.05294 V
- Vm ([2]; 0.4 uM Glibenclamide in 0 mM Glucose, islet 6): -0.05777 V
- Vm ([2]; 0.4 uM Glibenclamide in 8 mM Glucose, islet 1): -0.04669 V
- Vm ([2]; 0.4 uM Glibenclamide in 8 mM Glucose, islet 2): -0.04799 V
- Vm ([2]; 0.4 uM Glibenclamide in 8 mM Glucose, islet 3): -0.04272 V
- Vm ([2]; 0.4 uM Glibenclamide in 8 mM Glucose, islet 5): -0.05311 V
- Vm ([2]; 0.4 uM Glibenclamide in 8 mM Glucose, islet 6): -0.0321 V
- effect on Vm ([2]; glibenclamide 0.4 µM, glucose 0 mM): dramatically depolarized Vm and triggered a train of action potentials
- insulin secretion after removal of inhibitor and return to 3 mM glucose ([3]; 1 μM glibenclamide): the elevated insulin secretion largely persisted
- effect on insulin secretion ([3]; 1 μM glibenclamide with glucose raised from 3 to 10 mM): yielded insulin secretion much greater than that from elevated glucose alone
- insulin secretion in nonstimulating glucose (primary secretagogue) ([3]; 1 μM glibenclamide, 3 mM glucose, added 10 min before raising glucose): triggered sizable secretion of insulin; also recorded: stimulated sizable secretion of insulin
- effect on insulin secretion ([3]; 1 μM glibenclamide, 16.7 mM glucose): caused much greater secretion of insulin than it did in the absence of glibenclamide
- effect on elevated blood glucose level [4]: neither markedly lowered the elevated blood glucose level
- effect on plasma insulin [5]: nor caused a rise of insulin in the plasma

SMILES: CC1=NS(=O)(=O)c2cc(Cl)ccc2N1 [diazoxide]
- effect on insulin secretion ([6]; 16.7 mM glucose): lowered the insulin secretion in 16.7 mM glucose to the baseline level
- Amount of insulin (secreted/total), Mean ([6]; 3 mM glucose): 0.2568
- Amount of insulin (secreted/total), Mean ([6]; 16.7 mM glucose): 0.2327
